“Also recorded” adds a separate entry of the source.
Experiments:
[1] = Critical (phase transition) temperature Tc by differential scanning calorimetry; format: physicochemical
Outline: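 Phase transition temperature Tc of the cationic lipids measured by differential scanning calorimetry at a heating rate of 5 °C/minute.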

[2] = tested on: breast carcinoma MDA-Mb231; experiment: Luciferase (pGL3) transfection efficiency of lipoplexes, MDA-Mb231; format: cell-based; settings: optimized lipoplexes, Chol 1:1, FIG. 7
Source text: It is well known that specific cell types and cell lines may vary in their ability to be transfected. In addition to the NCI-H23 lung cancer cell line, we therefore tested our optimized formulation of 5AMyr/Chol 1:1 versus DOTAP/Chol 1:1 as reference on four other cell lines from tumors representing cancers of great importance to human health, as well as different tissues of origin: breast carcinomas MCF-7, MDA-Mb231, prostate carcinoma DU-145 and glioma SWB-95 (FIG. 7).
Dioleoylphosphatidylethanolamine (DOPE), cholesterol (CHOL), N-(2,3-dioleoyloxypropyl)-N,N,N-trimethylammonium chloride (DOTAP) were commercial products. The purity of the lipids was checked by thin layer chromatography and also by differential scanning calorimetry (DSC), which was also used for determining the critical temperature Tc. For the preparation of the liposomes a protocol optimized for this type of compounds was adopted as follows. The cationic lipid (with or without helper lipid) was dissolved in chloroform/methanol (2/1, v/v) to reach a final concentration of 1 mM for the charged species. […]
For the luciferase assay, 20 μL of cell lysate was aliquoted in a test tube and assessed directly using a luciferase assay kit from Promega by means of a luminometer.
The protein content was quantified using a bicinchoninic acid (BCA) assay. […]

[3] = tested on: lung cancer cell line NCI-H23; experiment: Luciferase (pGL3) transfection efficiency of lipoplexes, NCI-H23; format: cell-based, human; settings: exposure from one hour to three hours; data not shown
[4] = tested on: cancer cell line NCI-H23; experiment: WST-1 viability assay of transfected cells; format: cell-based, human
Method: FIG. 6. Viability assay results for the cancer cell line NCI-H23 transfected with 5AMyr-5EMyr and DOTAP (Cl^−)-based lipoplexes. The other characteristics were the same as in the transfection experiment represented in FIG. 5.
In order to assess the cytotoxicity associated with every anion, a WST-1^28 viability assay was conducted in parallel.

CCCCCCCCCCCCCC(=O)OCC(COC(=O)CCCCCCCCCCCCC)[n+]1c(C)cc(C)cc1C.F[P-](F)(F)(F)(F)F [Lipid 5AMyr, 1-(1,3-dimyristoyloxypropane-2-yl)-2,4,6-trimethylpyridinium hexafluorophosphate]
Tc (critical temperature), Pure ([1]; pure lipid): 67.8 °C | Tc (critical temperature), With DOPE (1:1 molar ratio) ([1]; with DOPE, 1:1 molar ratio): 22.4 °C | Tc (critical temperature), With cholesterol (1:1 molar ratio) ([1]; with cholesterol, 1:1 molar ratio): 64.8 °C | transfection efficiency (luciferase activity normalized for protein) [2]: 2950 RLU/μg of protein | transfection efficiency on longer cell exposure to lipoplexes [3]: higher transfection efficiencies | cytotoxicity (WST-1 viability) ([4]; NCI-H23 transfected with lipoplexes, Chol 1:1, FIG. 6): minimum cytotoxicity; also recorded: lower cytotoxic effect | cytotoxic effect on longer cell exposure to lipoplexes ([4]; exposure from one hour to three hours, data not shown): without any visible cytotoxic effect

From patent publication US7456197B2, “Pyridinium cationic lipids as gene transfer agents” (The Texas A&M University System, priority 2003, dated 2008)
